According to ChEMBL document CHEMBL1157164, “Computational analysis of the binding affinities of the natural-product cyclopentapeptides argifin and argadin to chitinase B from Serratia marcescens” (Bioorg Med Chem, 2008):
pIC50, pKi: −log10 of the molar value.

Legend:
[1] = molecular target: T1, Chitinase B (Serratia marcescens, UniProt P11797); test: Binding affinity to Serratia marcescens chitinase B
T1 sequence (P11797 whole entry): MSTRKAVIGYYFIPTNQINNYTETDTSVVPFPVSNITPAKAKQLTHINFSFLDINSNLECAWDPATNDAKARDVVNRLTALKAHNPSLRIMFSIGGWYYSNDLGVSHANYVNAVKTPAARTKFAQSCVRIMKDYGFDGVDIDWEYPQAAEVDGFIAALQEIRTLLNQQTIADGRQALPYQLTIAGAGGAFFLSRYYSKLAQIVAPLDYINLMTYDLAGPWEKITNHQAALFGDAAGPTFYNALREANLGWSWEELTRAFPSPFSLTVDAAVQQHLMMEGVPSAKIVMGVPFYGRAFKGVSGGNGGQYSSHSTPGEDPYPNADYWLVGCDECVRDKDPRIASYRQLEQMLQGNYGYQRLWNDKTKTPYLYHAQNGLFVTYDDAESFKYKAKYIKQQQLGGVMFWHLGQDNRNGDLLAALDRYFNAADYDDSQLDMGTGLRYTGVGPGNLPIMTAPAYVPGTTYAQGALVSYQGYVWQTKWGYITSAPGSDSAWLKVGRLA

[2] = Inhibition of Lucilia cuprina chitinase B

Compound	pIC50 [1]	pKi [2]
CC(=O)NC(=N)NCCC[C@@H]1NC(=O)[C@H](CCCC(=O)O)NC(=O)[C@H](Cc2c[nH]cn2)N2C(=O)[C@H](C[C@H]2O)NC(=O)[C@H]2CCCN2C1=O [ARGADIN]	8.47	7.70
CNC(=O)NC(=N)NCCC[C@@H]1NC(=O)[C@@H](C)NC(=O)C[C@@H](C(=O)O)NC(=O)C[C@@H](C(=O)O)NC(=O)[C@H](Cc2ccccc2)N(C)C1=O [ARGIFIN]	7.00	4.48
